Laboratory results: PMC6978316, “Development of chimeric peptides to facilitate the neutralisation of lipopolysaccharides during bactericidal targeting of multidrug-resistant Escherichia coli” (Communications Biology, 2020)
Read-outs that look alike come from different tables or passages of the source. Where a SMILES comes first, the peptide text is derived from it. Bridges are numbered along the chain shown (N, C = ends).

How the values were obtained:
[1] = system: TNF-α, IL-6 and IL-10 in LPS-stimulated RAW 264.7 cells; test: Cytokines in LPS-stimulated macrophages (ELISA); type: cell-based, mouse; parameters: unit not given here
Procedure: Macrophages RAW 264.7 were incubated with LPS (0.1 and 1 μg per ml) that was dissolved in serum-free DMEM medium, and then were treated with A6, G6, N6, or PMB (20 μM) alone in 24-well plates (2.5 × 10^5 cells per well). The cells incubated with serum-free DMEM and LPS were used as a control. After treatment for 2 h, the supernatants were collected and assessed for TNF-α, IL-6, and IL-10 by using the ELISA kits in the Jiaxuan Biotech. Co. Ltd. (Beijing, China).
73 Supplementary Figure 15. Effects of SCPs on cytokines in RAW 264.7 ells. Cells were incubated with 0.1 μg per
74 ml (a) or 1 μg per ml (b) LPS and 20 μM A6, G6, N6 or PMB for 2 h. The levels of TNF-α, IL-6 and IL-10 in
75 supernatants were measured using ELISA. The data are given as the mean ± SD (n = 3 independent experiments).
76 Different lower case letters indicate a significant difference between two groups (p < 0.05).
(§1) (1 picture or pasted object on this page, not shown here)

E. coli LPS [2] = test: Sepsis mouse model, survival after lethal LPS challenge; type: in vivo, ICR mice; settings: mice, LPS 13.5 mg per kg i.p., 7 d, n = 5
Procedure: The mouse survival was recorded for 7 d. The mice injected with LPS or saline were used as negative or blank controls, respectively.

E. coli LPS [3] = test: BODIPY-TR-cadaverine (BC) displacement assay; type: binding, Escherichia coli; settings: 100 μM
Procedure: The affinity of SCPs (A6, G6, and N6) to E. coli LPS was detected by the fluorescent BC probe. The binding of fluorescent probe with LPS can cause fluorescence quenching. When peptides bind to LPS, BC probe can be replaced, which can result in an increase in fluorescence. Equal volumes of LPS (40 μg per ml) and BC probe (10 μM) in 50 mM Tris buffer (pH 7.4) were mixed and added into a black 96-well microtiter plate (180 μl mixture per well), followed by the addition of different concentrations of A6, G6, or N6 (20 μl per well). Ampicillin and PMB were used as the negative and positive control, respectively. Changes in fluorescence were measured by a fluorescence spectrophotometry at room temperature (excitation: 580 nm, emission: 620 nm) and the BC displacement rate was calculated.

MDR E. coli CVCC195 = test: Thermal stability, residual antibacterial activity (inhibition zone); type: physicochemical, Escherichia coli; settings: mean of n = 3
Procedure: The N6, A6, and G6 solutions were treated at different temperatures (20–100 °C) for 1 h, dissolved and incubated at different pH values (2–10) for 3 h, or incubated with trypsin or pepsin for 4 h. The inhibition zone diameters were measured after incubation at 37 °C for 18–24 h.

binding of LPS to LBP = test: Binding of LPS to LBP on LPS-immobilized plate (ELISA); type: biochemical; settings: mean of n = 3
Procedure: The 96-well microtiter plates were coated with 4 ng per ml LPS (0.1 M Na2CO3 and 20 mM EDTA, pH 9.6, 50 μl per well) overnight at 4 °C, washed three times with PBST, and blocked with PBS (containing 1% BSA) for 2 h. After washing with PBST again, the plates were incubated at 37 °C for 1 h with different concentrations of peptides (A6, G6, or N6), which were dissolved in Dulbecco's Modified Eagle's (DMEM) medium (containing 10% FBS). After washing, cells were incubated with anti-LBP mAb 6G3 (ThermoFisher) for 1 h at 37 °C and HRP-conjugated rabbit anti-mouse IgG for 1 h at room temperature, respectively. Tetramethylbenzidine (TMB) solution was then added and incubated for 25–30 min. Finally, the reaction was stopped by addition of 0.5 M H2SO4, and the absorbance was measured at 450 nm[50].

[4] = system: 1:1 mixture of E. coli CVCC195 and S. aureus ATCC43300; type: cell-based, Escherichia coli; Staphylococcus aureus; settings: Mean
Procedure: The selectivity of A6, G6, and N6 against Gram-negative and Gram-positive bacteria was determined using the mixed-culture bactericidal kinetics assay, as described in the Supplementary Information.
27 Supplementary Figure 6. Killing selectivity of peptides. A 1:1 mixture of E. coli (Ec) and S. aureus
28 (Sa) was treated with A6 (16 μg per ml), G6 (16 μg per ml) or N6 (2 μg per ml) for 1, 3 and 5 min,
29 respectively; survivors were counted in MH plates. The change in relative ratio of E. coli to S. aureus
30 (Ec/Sa) after treatment with A6, G6 or N6 is shown.
31 independent experiments).
as §1
102 Supplementary Methods
103 Mixed-culture bactericidal kinetics of SCPs-A6 and G6. The mid-exponential phage E. coli
104 CVCC195 and S. aureus ATCC43300 cultures were diluted to 2 × 10^5 CFU per ml, mixed (1:1) and
105 added into the 96-well plates. A6, G6 or N6 were added into each well of plates to final concentration
106 of 16 (A6 and G6) or 2 (N6) μg per ml in a 200-μl total volume. An aliquot was removed at 1, 3 and 5
107 min, respectively, and survivors were counted on MH solid plates1–3. […]

E. coli CVCC195 = type: cell-based, Escherichia coli; settings: E. coli CVCC195
Procedure: Bacterial resistance against the peptides was assessed via the MIC assays. […] After 16–18 h of incubation at 37 °C, cells from the second highest concentration showing visible growth were used to inoculate the subsequent cultures. The MIC values for drug passage cultures were obtained as described above. This process was repeated for 30 d.

[5] = RAW 264.7 cells incubated with 0.1 μg per ml LPS
[6] = RAW 264.7 cells incubated with 1 μg per ml LPS
[7] = 0.625 μM, LPS-coated plate, peptide in DMEM + 10% FBS, 37 °C, 1 h, anti-LBP mAb, OD450

Compound	IL-6 Mean [1, 5]	IL-10 Mean [1, 5]	TNFα Mean [1, 5]	IL-6 Mean [1, 6]	IL-10 Mean [1, 6]	TNFα Mean [1, 6]	BC displacement ratio (E. coli LPS [3])	LPS-LBP binding (relative), Mean (binding of LPS to LBP; [7])	LPS-LBP binding (relative), Mean (binding of LPS to LBP; 1.25 μM)	LPS-LBP binding (relative), Mean (binding of LPS to LBP; 2.5 μM)	LPS-LBP binding (relative), Mean (binding of LPS to LBP; 5 μM)	LPS-LBP binding (relative), Mean (binding of LPS to LBP; 10 μM)	LPS-LBP binding (relative), Mean (binding of LPS to LBP; 20 μM)	LPS-LBP binding (relative), Mean (binding of LPS to LBP; 40 μM)	also measured
CC(C)[C@@H]1NC(=O)CNC(=O)[C@H](CC(N)=O)NC(=O)[C@H](CCCNC(=N)N)NC(=O)[C@H](Cc2ccc(O)cc2)NC(=O)[C@H](C(C)C)NC(=O)[C@@H](NC(=O)[C@@H](NC(=O)[C@H](CC(N)=O)NC(=O)[C@H](Cc2c[nH]c3ccccc23)NC(=O)[C@H](C)NC(=O)[C@H](Cc2ccccc2)NC(=O)CN)C(C)C)CSSC[C@@H](C(=O)N[C@@H](Cc2c[nH]cn2)C(=O)N[C@@H](CCCNC(=N)N)C(=O)N[C@@H](CCCNC(=N)N)C(=O)N[C@@H](C)C(=O)N[C@@H](CC(N)=O)C(=O)O)NC(=O)[C@H](C(C)C)NC(=O)[C@H](CCCNC(=N)N)NC1=O [N6] (H-GFAWNVCVYRNGVRVCHRRAN-OH; disulfide 7-16; N-terminus and C-terminus assumed)	279.833	106.233	479.8	303.4	118.033	495.967	90.5%	0.82	1.017	0.8065	0.8105	0.7607	0.6457	0.5608	mouse survival (E. coli LPS [2]; 0.125 μmol per kg): 60%; survival (E. coli LPS [2]; 0.25 μmol per kg): All mice survived; antibacterial activity after heat treatment (inhibition zone diameter), Mean (MDR E. coli CVCC195; 20℃ for 1 h, inhibition zone vs E. coli CVCC195 after 37 °C 18–24 h): 1.935; antibacterial activity after heat treatment (inhibition zone diameter), Mean (MDR E. coli CVCC195; 40℃ for 1 h, inhibition zone vs E. coli CVCC195): 1.912; antibacterial activity after heat treatment (inhibition zone diameter), Mean (MDR E. coli CVCC195; 60℃ for 1 h, inhibition zone vs E. coli CVCC195): 1.95; antibacterial activity after heat treatment (inhibition zone diameter), Mean (MDR E. coli CVCC195; 80℃ for 1 h, inhibition zone vs E. coli CVCC195): 1.964; antibacterial activity after heat treatment (inhibition zone diameter), Mean (MDR E. coli CVCC195; 100℃ for 1 h, inhibition zone vs E. coli CVCC195): 1.917; killing selectivity of peptides ([4]; time 0 min): 0.9569; killing selectivity of peptides ([4]; time 1 min): 0.9093; killing selectivity of peptides ([4]; time 3 min): 0.8204; killing selectivity of peptides ([4]; time 5 min): 0.6732
polymyxin B [PMB]	311.767	122.2	546.867	278.7	116.9	447.633	83.7%	0.8274	0.5768	0.4491	0.3343	0.393	0.3466	0.2168	change of MIC over the course of 30 serial passages (E. coli CVCC195): hardly changed; survival (E. coli LPS [2]; 10 μmol per kg): All mice survived
